Results on two compounds are retold here after patent US8043823B2, “Methods of identifying agonists and antagonists of hTASR bitter taste receptors” (Deutsches Institut fuer Ernaehrungsforschung, priority 2007, dated 2011).

Assay type in all cases: cell-based
In one assay the target is T1, TAS2R47 (Homo sapiens, UniProt P59541).
T1 construct: expressed in transfected cells; host or cells: HEK-293T cells stably expressing Gα16gust44
T1 sequence (P59541 1-319): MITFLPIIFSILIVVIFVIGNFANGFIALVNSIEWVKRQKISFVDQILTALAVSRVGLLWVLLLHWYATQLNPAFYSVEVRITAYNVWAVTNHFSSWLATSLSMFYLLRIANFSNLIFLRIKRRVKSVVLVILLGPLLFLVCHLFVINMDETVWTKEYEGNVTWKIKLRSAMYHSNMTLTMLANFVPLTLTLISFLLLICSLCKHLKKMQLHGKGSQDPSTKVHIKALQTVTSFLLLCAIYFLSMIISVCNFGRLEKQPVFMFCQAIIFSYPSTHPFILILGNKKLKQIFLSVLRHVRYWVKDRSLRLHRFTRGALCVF
Briefly: FLIPR calcium imaging of HEK-293T Gα16gust44 cells transiently expressing TAS2R47. An excerpt: (§1) Functional expression. Human TAS2R cDNA constructs were used that encoded a plasma membrane-targeting sequence of the rat somatostatin type 3 receptor at the N-terminus of the recombinant polypeptide and a herpes simplex virus glycoprotein D (HSV) epitope at its C-terminus (Bufe et al., 2002). The constructs were transiently transfected into HEK-293T cells that stably express the chimeric G-protein subunit Gα16gust44 using Lipofectamine 2000 (Invitrogen, San Diego, Calif.) in 96-well microtiter plates. Calcium imaging experiments using an automated fluorometric imaging plate reader (FLIPR) (Molecular Devices, Munich, Germany) have been performed 24-32 h later essentially as described previously (Bufe et al., 2002). Tastants (Sigma-Aldrich, Taufkirchen, Germany) were dissolved and administered in the following (in mM): 130 NaCl, 5 KCl, 10 HEPES, 2 CaCl2, and 10 mM glucose, pH7.4. Data were collected from 1-2 independent experiments performed at least in triplicate and processed with SigmaPlot (SPSS, Chicago, Ill.). For dose-response curve calculation, the peak fluorescence responses after compound addition were corrected for and normalized to background fluorescence (ΔF/F=(F−F0)/F0), and baseline noise was subtracted. […]

The next assay concerns the target T2, TAS2R46 (Homo sapiens, UniProt P59540).
T2 construct: expressed in transfected cells; host or cells: HEK-293T cells stably expressing Gα16gust44
T2 sequence (P59540 with tags, fused parts or gaps): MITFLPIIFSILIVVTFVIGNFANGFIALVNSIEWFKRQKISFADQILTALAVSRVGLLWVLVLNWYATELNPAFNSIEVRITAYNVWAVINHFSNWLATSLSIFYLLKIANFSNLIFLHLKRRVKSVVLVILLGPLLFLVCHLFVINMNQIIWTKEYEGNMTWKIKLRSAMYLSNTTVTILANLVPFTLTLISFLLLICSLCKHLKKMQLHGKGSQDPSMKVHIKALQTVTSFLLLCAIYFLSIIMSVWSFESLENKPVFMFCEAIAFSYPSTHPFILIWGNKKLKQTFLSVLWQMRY
Briefly: FLIPR calcium imaging of HEK-293T Gα16gust44 cells transiently expressing TAS2R46. To be noted: intracellular calcium response.
Excerpt: as §1
A general note: A change in cytosolic calcium serves as a functional read-out for many receptors and channels.

The next assay addresses T3, TAS2R50 (Homo sapiens, UniProt P59544, C203Y).
T3 construct: expressed in transfected cells; host or cells: HEK-293T cells stably expressing Gα16gust44
T3 sequence (P59544 1-299 C203Y): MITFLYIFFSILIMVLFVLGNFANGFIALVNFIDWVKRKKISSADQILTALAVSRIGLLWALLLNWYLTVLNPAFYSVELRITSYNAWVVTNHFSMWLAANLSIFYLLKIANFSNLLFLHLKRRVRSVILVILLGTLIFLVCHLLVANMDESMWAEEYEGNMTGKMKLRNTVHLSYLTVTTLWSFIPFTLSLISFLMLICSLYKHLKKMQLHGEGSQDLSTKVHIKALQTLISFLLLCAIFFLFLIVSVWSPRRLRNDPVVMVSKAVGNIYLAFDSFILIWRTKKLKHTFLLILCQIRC
Briefly: FLIPR calcium imaging of HEK-293T Gα16gust44 cells transiently expressing TAS2R50.
Excerpt: as §1

Regarding `CC12CCC(CC1=O)C2(C)C` (centres unmarked) [Camphor, camphor], the “molar range at which TAS2R47 responded” value on TAS2R47 (Table 1, assay similar to Example 1) was 0.3 mM.

Usually EC50 stands for the concentration giving half of the maximal effect. On to `C=C1CC[C@@H]2[C@](C)(CO)[C@H](O)CC[C@@]2(C)[C@@H]1C/C=C1/C(=O)OC[C@H]1O` [andrographolide], for which, on TAS2R46, the “concentration to which TAS2R46-expressing cells already responded” value worked out at 3 µM. Also, the “concentration at which TAS2R47-expressing HEK293 cells responded” value on TAS2R47 (intracellular calcium response, 30 μM or higher) was no less than 30 µM. Also, the EC50 at TAS2R50 (dose-response curve on TAS2R50, FIG. 2, one experiment in triplicate) came out at 5.6 µM. The “response of TAS2R50 in FLIPR calcium imaging” value on TAS2R50 (result in words) is recorded as “low micromolar range”.
